In data set [1] the test system is CD8+ TILs, M2 macrophages, MDSCs and Treg cells in U14 xenograft tumors. As to conditions: Figure 7A.
Description: U14 cells (1 × 10^7 cells per mouse, approximately 100–150 μL of cell suspension) were implanted subcutaneously into the lateral lower dorsal surface of each mouse. The tumors were allowed to grow for 7 days, and the mice were then administered one of five treatments (group 1: U14 cells + DMSO; group 2: U14 cells + Remodelin; group 3: U14 cells + anti-PD-L1 antibody; group 4: U14 cells + NP1192; group 5: U14 cells + anti-PD-L1 antibody + NP1192). Each group of mice was assigned according to the principles of randomization and the blinding method. Tumors were measured every 2 days, and tumor volume was calculated via the following equation: volume = (width)^2 × length/2. Remodelin and NP1192 were injected into the peritumoral area every 2 days at a dose of 25 mg/kg, and the in vivo antimouse PD-L1 antibody (low endotoxin) was injected every 3 days at a dose of 2.5 mg/kg.
After the mice were euthanized, the tumor and peritumoral tissues were analyzed with an immunoflow kit (BioLegend, USA). The antibodies used for immunoflow cytometry included antihuman/mouse antibodies specific for CD11b-BV711, F4/80-AF647, CD206-PE, CD86-BV605, CD4-CD4-FITC IL-17-17-CY7/CY7, CD25-PE, FOXP3-AF647, CD4-BV605, CD45-PE/CY7, CD11b-BV711 and LY-6G/LY-6C-BV421 (BioLegend catalog no. 321239, RRID:AB_2860843). All data analyses were performed via GraphPad Prism 9, and the data are presented as the mean ± SEMs.
A further data set relates to SiHa cells. The data set is described as follows: Colony formation assay in SiHa cells. The format is cell-based, human. As to conditions: pretreated 20 μM 36 h, 2 weeks. As for the experimental part: NAT10^± SiHa cells and SiHa cells treated with DMSO, Remodelin or NP1192 for 36 h were seeded into the wells of a 6-well microplate at identical densities of 2000 or 3000 cells per well. The cells were then incubated in the incubator for at least 2 weeks to form colonies. After the incubation period, the cells were fixed with formalin and then stained with crystal violet. The colonies were then counted via a microscope. The number and size of the colonies in the experimental groups were compared.

The test system of a further data set is PD-L1. Kind of data set: PD-L1 protein level in SiHa cells, Western blot. The format is cell-based, human. As to conditions: 36 h. As for the experimental part: (§1) RIPA lysis buffer (Beyotime, China) mixed with 1% protease inhibitor (Sigma, US) was added to the cells, and a sample of total protein was obtained and then loaded onto an 8% or 12% polyacrylamide gel. The gel was placed in a buffer solution, and an electric current was applied. The separated proteins were subsequently transferred from the gel onto a PVDF membrane. Next, the membrane was blocked with 5% milk for 1 h to prevent nonspecific antibody binding. The membranes were subsequently incubated with anti-NAT10 (1:1000, Abcam, USA), anti-PD-L1 (1:1000, Proteintech, China), anti-HIF-1α (1:1000, Abmart, China), and anti-β-tubulin (1:1000, Proteintech, China) primary antibodies for 12 h. Afterward, the membrane was sequentially washed with 1× TBST and incubated for 1 h with an antimouse secondary antibody (1:6000, Elabscience, China) or antirabbit secondary antibody (1:6000, Elabscience, China). The target proteins were detected via chemiluminescence with a ChemiDoc MP Imaging System (Bio-Rad, US).

For another data set, the system named is HIF-1α. Kind of data set: HIF-1α protein level in SiHa cells, Western blot. As to conditions: 36 h. The class given is cell-based, human. The protocol:
as §1

For another data set, the system named is U14 cells. Kind of data set: Lactic acid, ATP and 2-NBDG uptake assays in U14 cells. The class given is cell-based, murine. To be noted: U14, 20 μM, 36 h. As for the experimental part:
SiHa and U14 cells (2 × 10^5 cells per well) were plated in 6-well plates and cultured in RPMI 1640 medium or DMEM supplemented with 10% FBS and 1% penicillin–streptomycin. After cell adherence, 20 μM NP1192 or DMSO was added and incubated for 36 h, and the assays were performed according to the instruction manuals for the Lactate Assay Kit (Nanjing Jiancheng, China), ATP Assay Kit (Beyotime, China), and 2-NBDG reagent (GlpBio, US). All data analyses were performed via GraphPad Prism 9, and the data are presented as the means ± SEMs.

For a further data set, the system named is normal organoids. The data set is described as follows: Normal organoids exposed to NP1192. The class given is cell-based, human. As to conditions: following NP1192 exposure. The protocol: Organoid culture was performed according to previously established protocols. Briefly, we procured patient-derived tissue samples provided and technically manipulated by Accurate International Biotechnology Co., Ltd. Subsequently, these samples were subjected to mechanical and enzymatic dissociation to disaggregate the tissue into single cells or small clusters, while preserving cellular integrity. Following this initial step, the isolated cells or tissue fragments were embedded within a 3D ECM scaffold, such as Matrigel or collagen. The ECM scaffold served as a supportive substrate, promoting cellular self-organization and mimicking native tissue architecture. Additionally, a precisely formulated cocktail of growth factors, cytokines, and signaling molecules tailored to the specific tissue of interest was meticulously formulated and added to the culture medium to facilitate organoid growth and maintenance.

In another data set the target is T1, NAT10 (Mus musculus, UniProt Q8K224).
T1 construct: nearly 70% reduction in the NAT10 protein content in murine U14 cervical cells after 36 h; endogenous in cells; host or cells: U14 (murine cervical carcinoma cell line, RRID:CVCL_9U56)
T1 sequence (Q8K224 1-1024): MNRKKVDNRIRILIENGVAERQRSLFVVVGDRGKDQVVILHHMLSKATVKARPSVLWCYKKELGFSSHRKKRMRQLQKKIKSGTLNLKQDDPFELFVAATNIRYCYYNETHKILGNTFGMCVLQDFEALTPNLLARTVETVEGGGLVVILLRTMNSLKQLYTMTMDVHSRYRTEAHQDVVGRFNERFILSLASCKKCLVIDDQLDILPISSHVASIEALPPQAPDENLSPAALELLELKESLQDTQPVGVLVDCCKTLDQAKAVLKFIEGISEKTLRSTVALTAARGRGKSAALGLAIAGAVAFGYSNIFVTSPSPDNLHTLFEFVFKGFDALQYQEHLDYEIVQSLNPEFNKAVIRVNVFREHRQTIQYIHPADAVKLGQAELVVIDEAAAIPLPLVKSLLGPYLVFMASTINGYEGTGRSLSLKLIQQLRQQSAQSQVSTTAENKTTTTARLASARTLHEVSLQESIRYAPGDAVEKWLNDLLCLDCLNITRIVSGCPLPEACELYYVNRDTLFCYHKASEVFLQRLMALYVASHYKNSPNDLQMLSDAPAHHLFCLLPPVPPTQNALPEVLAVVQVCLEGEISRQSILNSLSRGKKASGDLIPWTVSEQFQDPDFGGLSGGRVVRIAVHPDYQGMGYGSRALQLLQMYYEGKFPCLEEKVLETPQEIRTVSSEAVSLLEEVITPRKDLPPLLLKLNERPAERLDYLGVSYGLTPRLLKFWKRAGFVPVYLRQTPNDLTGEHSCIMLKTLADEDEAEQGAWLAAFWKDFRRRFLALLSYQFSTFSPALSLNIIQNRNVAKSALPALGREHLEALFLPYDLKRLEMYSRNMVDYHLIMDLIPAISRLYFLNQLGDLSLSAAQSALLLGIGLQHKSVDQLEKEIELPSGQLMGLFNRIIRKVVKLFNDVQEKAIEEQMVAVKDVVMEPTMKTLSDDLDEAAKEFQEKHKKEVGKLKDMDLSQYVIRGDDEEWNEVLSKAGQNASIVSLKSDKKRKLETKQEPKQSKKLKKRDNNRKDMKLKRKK
The data set is described as follows: NAT10 degradation in U14 cells, Western blot. To be noted: murine U14 cervical cells, same treatment (20 μM), 36 h. The format is cell-based. The protocol: The human CCa cell line SiHa and the normal epithelial foreskin fibroblast line HFF-1 were purchased from the Cell Bank of the Chinese Academy of Sciences. Additionally, murine cervical carcinoma cell line U14 (RRID:CVCL_9U56) was purchased from Boster Company. HFF-1 and U14 cells were cultured in Dulbecco’s modified Eagle’s medium (DMEM) (Gibco, USA) supplemented with 10% heat-inactivated fetal bovine serum (FBS; Gibco, USA), while SiHa cells were incubated in RPMI 1640 medium (Gibco, USA) in a humid atmosphere with 5% CO2 at 37 °C. For hypoxia exposure, the cells were incubated in a sealed culture tank containing 5% CO2 and 0.1% O2 (MGC, Japan) for 36 h.
RIPA lysis buffer (Beyotime, China) mixed with 1% protease inhibitor (Sigma, US) was added to the cells, and a sample of total protein was obtained and then loaded onto an 8% or 12% polyacrylamide gel. The gel was placed in a buffer solution, and an electric current was applied. The separated proteins were subsequently transferred from the gel onto a PVDF membrane. Next, the membrane was blocked with 5% milk for 1 h to prevent nonspecific antibody binding. […] The target proteins were detected via chemiluminescence with a ChemiDoc MP Imaging System (Bio-Rad, US).

Molecules are shown by their SMILES.

On to `N#Cc1ccc(-c2csc(N(CCCCCCC(=O)N3CCN(c4cccc5c4C(=O)N(C4CCC(=O)NC4=O)C5=O)CC3)N=C3CCCC3)n2)cc1` (stereo not drawn) [NP1192], for which, in data set [1] (CD4+CD25+FOXP3+), the Treg gate stood at 0.00%. Moreover, the “M2 (M2 macrophages gate)” value in data set [1] (CD11b+F4/80+CD206+) worked out at 8.10%. This compound gave an MDSC gate in data set [1] (CD11b+LY-6G+) of 4.96%. Further, in data set [1] (tumors after treatment), the “CD8+ (CD8+ TILs gate)” value was determined as 4.30%. Further, in the data set on SiHa cells, the colony formation capacity entry is “substantial decrease in colony formation capacity”. In addition, the PD-L1 protein level entry with PD-L1 is recorded as “pronounced downregulation of PD-L1”. Further, the HIF-1α protein levels result in the data set on HIF-1α is recorded as “decreased HIF-1α protein levels”. Also, in the data set on U14 cells, the lactate levels result is listed as “significantly decreased lactate levels” and the “level of ATP production” value is on record as “increased markedly”. Moreover, the “absorbtion rate (glucose analog 2-NBDG)” value with U14 cells (Figure 4L, DMSO 9.57) stood at 0.80. In addition, the “architecture and cellular integrity of normal organoids” value with normal organoids is “remained unaltered”. Also, on NAT10, the “reduction in NAT10 protein content” value was around 70%.

Source of the values: PMC12670317, “Targeted NAT10 Degradation by PROTAC NP1192 Suppresses Hypoxia-Adaptive Glycolysis and Reinvigorates CD8^+ Effector T‑Cell Function for Synergistic Cancer Immunotherapy” (ACS Central Science, 2025).
